Experimental data taken from publication PMC7073886, “Structure–Bioactivity Relationships of Lapatinib Derived Analogs against Schistosoma mansoni” (ACS Medicinal Chemistry Letters, 2020).
Converted amounts (≈) assume the structure as drawn. Where two headings read alike, the source gives them in different places.

Legend:
[1] = Aqueous pH 7.4 solubility; assay type: physicochemical; details: for solubility: phosphate buffer pH 7.4, 25 °C, 20-24 h, read-out: aq sol (aqueous solubility)
Rat hepatocyte Clint = assay type: in vitro ADME; details: rat hepatocytes, intrinsic clearance; for hepatocyte CLint: read-out: RH CLint
[2] = Human plasma protein binding (equilibrium dialysis); assay type: in vitro ADME; details: for human PPB (plasma protein binding): 10 µM, 37 °C; for fraction unbound at 10 µM: pH 7.4, 37 °C, read-out: human PPB (plasma protein binding) (converted)
adult S. mansoni = test: Phenotypic screen of adult S. mansoni worms, severity scores and descriptors; assay type: cell-based, Schistosoma mansoni; details: for Descriptors (10 µM) 1 h / Severity Scores (10 μM) 1 h / Descriptors (10 µM) 5 h / Severity Scores (10 μM) 5 h / Severity Scores (10 μM) 24 h / Severity Scores (10 μM) 48 h / Descriptors (10 µM) 24 h / Descriptors (10 µM) 48 h: adult S. mansoni; for Descriptors (10 µM) 1 h / Descriptors (10 µM) 5 h / Descriptors (10 µM) 24 h / Descriptors (10 µM) 48 h: phenotypic descriptors; for Severity Scores (10 μM) 1 h / Severity Scores (10 μM) 5 h / Severity Scores (10 μM) 24 h / Severity Scores (10 μM) 48 h: scale 0 (no activity) to 4 (maximal activity); for bioactivity against adult S. mansoni: adult schistosomes; for Severity Scores (10 μM) 1 h / Severity Scores (10 μM) 5 h / Severity Scores (10 μM) 24 h / Severity Scores (10 μM) 48 h / bioactivity against adult S. mansoni: 10 μM
Procedure, shortened: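 Adult S. mansoni (NMRI isolate, ≥42 days old) were co-incubated with compounds and changes in motility, density, shape and adherence recorded visually over time and concentration. Descriptors converted to severity scores from 0 (no activity) to 4 (maximal).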

HepG2 cells = test: Drug toxicity to HepG2 cells (MTT); assay type: cell-based; details: for HepG2 TC50: HepG2 cells, 48 hours incubation, MTT
[3] = Log D7.4 shake-flask octanol-water; assay type: physicochemical; details: pH 7.4
[4] = Human liver microsomal Clint; assay type: in vitro ADME; details: human liver microsomes, intrinsic clearance; for microsomal CLint: read-out: HLM Clint
[5] = aqueous buffer, thermodynamic from solid

| solubility [1] [µM] | RH CLint (Rat hepatocyte Clint) [µL/min/10^6 cells] | human PPB (plasma protein binding) [2] [%] | LogD 7.4 [3] | HLM Clint [4] [μL/min/mg protein] | hepatocyte CLint (Rat hepatocyte Clint) [µL/min/1e6 cells] | logD [3] | microsomal CLint [4] [µL/min/mg] | Structure (SMILES) | Descriptors (10 µM) 1 h (adult S. mansoni) | Severity Scores (10 μM) 1 h (adult S. mansoni) | Descriptors (10 µM) 5 h (adult S. mansoni) | Severity Scores (10 μM) 5 h (adult S. mansoni) | Severity Scores (10 μM) 24 h (adult S. mansoni) | Severity Scores (10 μM) 48 h (adult S. mansoni) | HepG2 TC50 (HepG2 cells) [µM] | Descriptors (10 µM) 24 h (adult S. mansoni) | Descriptors (10 µM) 48 h (adult S. mansoni) | bioactivity against adult S. mansoni (adult S. mansoni) | further results |
| --- | --- | --- | --- | --- | --- | --- | --- | --- | --- | --- | --- | --- | --- | --- | --- | --- | --- | --- | --- |
| 870 (≈ 406 µg/mL) | 10 | 73 | 2.2 | 28 | – | – | – | O=S(=O)(c1ccc(-c2ccc3nccc(NCCN4CCCC4)c3c2)cc1)N1CCOCC1 [S3e] | none | 0 | none | 0 | 1 | 3 | 9.2 | – | – | – | – |
| 910 (≈ 375 µg/mL) | 19 | 61 | 2.2 | 87 | – | – | – | CN1CCCN(c2ncc(-c3ccc4nccc(Nc5ccncn5)c4c3)cn2)CC1 [S3j] | none | 0 | none | 0 | 0 | – | > 37 | none | – | – | – |
| 38 (≈ 17.8 µg/mL) | 72 | 74 | 2.7 | 70 | – | – | – | O=S(=O)(c1ccc(-c2ccc3nccc(NCC4CCOCC4)c3c2)cc1)N1CCOCC1 [S3g] | none | 0 | none | 0 | 0 | 0 | 32 | none | none | – | – |
| – | – | – | – | – | 85 | 3.7 | 270 | O=S(=O)(c1ccc(-c2ccc3nccc(Nc4ncccn4)c3c2)cc1)N1CCOCC1 [S3b] | S, on sides | 2 | S, on sides | 2 | 3 | 3 | > 34 | – | – | moderate activity after 1 h | solubility [1, 5]: 34 µM (≈ 15.2 µg/mL); fraction unbound at 10 µM [2]: 0.01 |
| 0.06 (≈ 0.0278 µg/mL) | 28 | 96 | 3.1 | 44 | – | – | – | CS(=O)(=O)N1CCN(c2ncc(-c3ccc4c(Nc5cnccn5)ccnc4c3)cn2)CC1 [S2a] | none | 0 | none | 0 | 0 | 0 | > 33 | none | none | – | – |
| 140 (≈ 65.5 µg/mL) | 30 | 72 | 2.4 | 43 | – | – | – | O=S(=O)(c1ccc(-c2ccc3nccc(N[C@@H]4CCCC[C@H]4O)c3c2)cc1)N1CCOCC1 (relative stereo) [S3d] | none | 0 | none | 0 | 0 | 0 | 32 | none | none | – | – |
| 790 (≈ 369 µg/mL) | 3.7 | 58 | – | 23 | – | – | – | CN1CCC(Nc2ccnc3ccc(-c4ccc(S(=O)(=O)N5CCOCC5)cc4)cc23)CC1 [S3c] | none | 0 | none | 0 | 0 | 0 | 26 | none | none | – | – |
| 930 (≈ 381 µg/mL) | 2.6 | 42 | -0.4 | – | – | – | – | C[C@@H]1CNCCN1C(=O)c1ccc(-c2cnc(N3CCCN(C)CC3)nc2)cc1N [S4c] | none | 0 | none | 0 | 0 | – | > 37 | none | – | – | – |
| 11 (≈ 4.46 µg/mL) | 7.6 | – | 1.7 | 6 | – | – | – | C[S+]([O-])CCNc1ncc(-c2ccc3c(Nc4cnccn4)ccnc3c2)cn1 (stereo not drawn) [S2b] | none | 0 | none | 0 | 0 | – | > 37 | none | – | – | – |
| 950 (≈ 361 µg/mL) | – | 63 | 1 | – | – | – | – | C[C@@H]1CNCCN1C(=O)c1ccc(-c2cccc(N3CCOCC3)c2)cc1N [S4d] | none | 0 | none | 0 | 0 | 0 | > 40 | none | none | – | – |
| 630 (≈ 252 µg/mL) | 55 | – | 2.3 | 45 | – | – | – | CN(C)CCN(C)c1ncc(-c2ccc3c(Nc4cnccn4)ccnc3c2)cn1 [S2c] | none | 0 | none | 0 | 0 | 0 | > 38 | none | none | – | – |
| – | – | – | – | – | 4 | 1.8 | 19 | c1cnc(Nc2ccnc3cc(-c4cnc(N5CCCNCC5)nc4)ccc23)cn1 [4g] | none | 0 | none | 0 | 0 | 0 | – | none | none | bioactivity of this series was not observed | solubility [1, 5]: 53 µM (≈ 21.1 µg/mL); fraction unbound at 10 µM [2]: 0.37 |
| – | – | – | – | – | 300 | 3.9 | 62 | COc1ccc(NC(=O)c2ccc(-c3ccc(S(=O)(=O)N4CCN(C)CC4)cc3)cc2O)cc1Cl [7c] | none | 0 | – | 3 | 2 | – | – | – | – | phenotypic response after 5 h | solubility [1, 5]: 6 µM (≈ 3.1 µg/mL); fraction unbound at 10 µM [2]: < 0.01 |
| – | – | – | – | – | – | 3.3 | – | Cc1cc2c(Nc3cnccn3)ccnc2cc1-c1cnc(N2CCN(C)CC2)nc1 [8a] | Unc, on sides | 2 | – | – | 4 | 4 | – | – | – | severe phenotypic response by 5 h | decrease in aqueous solubility compared with 3 ([1]; relative to 3): > 2200 fold; increase in toxicity against HepG2 cells compared with 3 (HepG2 cells; relative to 3): greater than 5 fold |
| – | – | – | – | – | 7 | 5 | 130 | Cc1ccc2[nH]c3c4ccc(-c5cnc(N6CCCN(C)CC6)nc5)cc4ncc3c2c1 [6c] | – | 3 | – | 4 | 4 | 4 | – | – | – | severe bioactivity after 1 h | solubility [1, 5]: 14 µM (≈ 5.92 µg/mL); fraction unbound at 10 µM [2]: < 0.01 |
| – | – | – | – | – | 300 | 3.8 | 44 | COc1ccc(NC(=O)c2ccc(-c3cnc(N4CCN(C)CC4)nc3)cc2O)cc1Cl [7a] | none | 0 | none | 0 | 0 | – | – | none | – | complete loss of activity | solubility [1, 5]: 5 µM (≈ 2.27 µg/mL); fraction unbound at 10 µM [2]: < 0.01 |
| – | – | – | – | – | 14 | – | 30 | CN1CCCN(c2ccc(Nc3ccc4c(Nc5cnccn5)ccnc4c3)cc2)CC1 [S3k] | none | 0 | none | 0 | 2 | 2 | 17 | S, on sides | S, on sides | – | – |
